In assay [1] the target is thioredoxin-fused β2AR-Gs and liposome complex. The experiment in a line: Ligand binding saturation experiment with [3H]DHA on reconstituted membrane fraction. Set-up: species or system human. As to conditions: average of three independent experiments; 0 to 25 nM [3H]DHA, 25° C., 60 minutes; read-out: binding constant (Kd value), average. The method, then: Subsequently, PBS was added to dilute the detergent, and 10% β-dodecylmaltoside (Nacalaitesque) was added dropwise to make the final concentration 1%. […] A complex of the reconstituted thioredoxin-fused β2AR-Gs after completion of the dialysis and the liposome was centrifuged for 1 hours at 100,000×g and 4° C., and the resultant precipitation fraction (reconstituted membrane fraction) was suspended in 50 μl of an incubation buffer (75 mM Tris-HCl (pH7.4), 12.5 mM MgCl2, 2 mM EDTA).
The ligand binding saturation experiment was conducted by incubating this reconstituted membrane fraction (complex of thioredoxin-fused β2AR-Gs and liposome) together with 0 to 25 nM tritium-labeled Dihidroalprenolol ([^3H]DHA) in 200 μl as a final volume of the incubation buffer at 25° C. for 60 minutes. A competition experiment was conducted by incubating the reconstituted membrane fraction described above together with 10 nM [^3H]DHA in the presence or absence of 10^−8 to 10^−2 MAlprenolol (Sigma).

The target of assay [2] is T1, human β2AR expressed in an insect cell (Sf9 cell) (Homo sapiens, UniProt P07550).
T1 construct: expressed in transfected cells; host or cells: Sf9 insect cells
T1 sequence (P07550 whole entry): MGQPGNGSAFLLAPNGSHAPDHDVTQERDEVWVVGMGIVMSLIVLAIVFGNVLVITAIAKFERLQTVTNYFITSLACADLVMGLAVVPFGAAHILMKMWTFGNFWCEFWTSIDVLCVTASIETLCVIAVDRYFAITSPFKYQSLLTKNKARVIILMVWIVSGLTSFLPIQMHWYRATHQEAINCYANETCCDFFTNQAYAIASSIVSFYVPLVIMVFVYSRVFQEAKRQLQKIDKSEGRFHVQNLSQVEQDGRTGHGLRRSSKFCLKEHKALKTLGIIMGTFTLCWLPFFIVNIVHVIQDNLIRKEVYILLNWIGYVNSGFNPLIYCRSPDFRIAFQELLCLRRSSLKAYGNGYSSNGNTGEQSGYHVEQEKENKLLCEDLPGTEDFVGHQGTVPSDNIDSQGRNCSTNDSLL
Briefly: Ligand binding saturation experiment with [3H]DHA, positive control receptor. As to conditions: n=1, read-out: binding constant (Kd value).

These results are taken from patent US7253144B2, “Method for producing by cell-free protein synthesis system using thioredoxin-fused protein expression vector” (Riken, priority 2002, dated 2007).

What is called Kd is the concentration at which binding is half-saturated.

Consider `CCCc1ccccc1OCC(O)CNC(C)C` (centres unmarked) [[^3H]DHA, Dihidroalprenolol], for which the Kd in assay [1] is 5.5 ± 1.1 nM; in assay [2], 3.9 nM.
